In PMC8878317, “Chemogenomics identifies acetyl-coenzyme A synthetase as a target for malaria treatment and prevention” (Cell Chemical Biology, 2022):

Tested on: P. falciparum 3D7 parasites
Experiment: Metabolomic profiling of compound-treated parasites (LC/MS);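 for Metabolite data: 3-Phosphoglycerate: Log2 fold change in abundance versus untreated parasite controls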;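 for Metabolite data: Myo-Inositol: Log2 fold change in abundance versus untreated parasite controls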;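 for Metabolite data: N-Carbamoyl-L-Aspartate: Log2 fold change in abundance versus untreated parasite controls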;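 for Metabolite data: Nicotinate: Log2 fold change in abundance versus untreated parasite controls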
Assay type: cell-based
Parameters: Metabolite data: dTMP / Metabolite data: GMP / Metabolite data: S-Adenosyl-L-Homocysteine / Metabolite data: 1_3-Bisphosphoglyceric acid: scale not given here
Description: The metabolite extraction protocol was performed as described elsewhere ([Allman et al., 2016]). Briefly, 1 mL of trophozoites that were magnetically purified to a concentration of 1×10^8 parasites/mL were placed into wells with 4 mL of RPMI 1640 media and allowed to recover for one hour. […] The culture was incubated for another 2.5 hr. The culture was centrifuged and quenched with 90% methanol containing 0.25 μM ^13C,^15N-Labeled-Aspartate, vortexed, and centrifuged. The supernatant was transferred to a new tube and dried for storage. Prior to analysis, the samples were resuspended to a final concentration of 1×10^8 parasites/mL in a solution of 3% methanol:water containing 1 μM chlorpropamide as an internal standard.
The chromatographic conditions used in this experiment were performed with slight modifications from previous methods ([Zhang et al., 2018]). Briefly, a Waters XSelect HSS C18 column was used on a gradient reverse-phase chromatographic configuration with 97:3 water:methanol with 10 mM tributylamine and 15 mM acetic acid (solvent A) and methanol (solvent B). A Thermo-Scientific Exactive Plus Orbitrap mass spectrometer was operated in negative mode for the detection of the metabolites. Peak picking and integration were performed using El-Maven LC/MS data processing software. The peak data were then exported to Excel where metabolite areas were normalized to the internal standards, blank subtracted, and averaged by condition.

Structure (SMILES): Cc1cc(Nc2ccc3ccccc3c2)n2ncnc2n1 [DSM1]
- Metabolite data: 1_3-Bisphosphoglyceric acid: 0
- Metabolite data: 2_3-Diphosphoglyceric acid: -0.2991
- Metabolite data: 3-Phosphoglycerate: -0.4141
- Metabolite data: 4-Aminobutyrate: 0.009246
- Metabolite data: 4-Phosphopantothenate: -0.5403
- Metabolite data: 4-phosphopantetheine: 0
- Metabolite data: 5-aminopentanoic acid: 0
- Metabolite data: 5-phosphoribosyl-1-pyrophosphate: 0
- Metabolite data: 6-Phospho-D-Gluconate: -0.253
- Metabolite data: ADP-D-Glucose: -0.1243
- Metabolite data: Acetyl-CoA: -0.3243
- Metabolite data: Acetyllysine: -0.16
- Metabolite data: Aconitate: -0.837
- Metabolite data: CDP: -0.7937
- Metabolite data: CDP-Ethanolamine: -0.6098
- Metabolite data: CDP-choline: 0
- Metabolite data: CMP: -1.862
- Metabolite data: CTP: -3.137
- Metabolite data: Citrate/Isocitrate: -0.6885
- Metabolite data: Cyclic-AMP: -0.9051
- Metabolite data: Dihydroorotate: 2.672
- Metabolite data: FAD: -0.1625
- Metabolite data: FMN: -0.9996
- Metabolite data: Fructose-1,6-Bisphosphate: -0.4129
- Metabolite data: Fumarate: -1.402
- Metabolite data: GDP: 0.4797
- Metabolite data: GMP: 0.1634
- Metabolite data: GTP: -1.061
- Metabolite data: Glucose-1/6-Phosphate: -0.4979
- Metabolite data: Glutathione Disulfide: -0.412
- Metabolite data: Hexose: 0
- Metabolite data: Hydroxyisocaproic acid: 0
- Metabolite data: Indole: -0.8571
- Metabolite data: Ketoleucine: 0
- Metabolite data: L-arginino-succinate: 0
- Metabolite data: Lactate: -0.809
- Metabolite data: Malate: -1.549
- Metabolite data: Myo-Inositol: -1.331
- Metabolite data: N-Acetyl-Glutamate: -0.2257
- Metabolite data: N-Acetyl-L-Alanine: -0.1646
- Metabolite data: N-Acetyl-L-Ornithine: -0.5891
- Metabolite data: N-Carbamoyl-L-Aspartate: 2.4139
- Metabolite data: NAD+: -0.1986
- Metabolite data: NADH: 0.07835
- Metabolite data: NADP+: -0.1908
- Metabolite data: NADPH: -0.3915
- Metabolite data: Nicotinate: -0.7359
- Metabolite data: Octulose 8/1-Phosphate: -0.4585
- Metabolite data: Orotate: -2.835
- Metabolite data: PD: -0.209
- Metabolite data: PE: -0.4415
- Metabolite data: PEEK: -0.4847
- Metabolite data: Phenol Red: 0
- Metabolite data: Pyroglutamic acid: -0.2671
- Metabolite data: S-Adenosyl-L-Homocysteine: -0.1944
- Metabolite data: S-methyl-5'-thioadenosine: -0.4315
- Metabolite data: SD: -0.8655
- Metabolite data: Sedoheptulose Bisphosphate: -0.2224
- Metabolite data: UDP: -2.0359
- Metabolite data: UDP-D-Glucose: -0.2988
- Metabolite data: UDP-D-Glucuronate: -0.2168
- Metabolite data: UDP-N-Acetyl-Glucosamine: -0.4693
- Metabolite data: UMP: -2.06
- Metabolite data: UTP: -4.388
- Metabolite data: a-ketoglutarate: -0.7348
- Metabolite data: acetyl-aspartate: 0
- Metabolite data: arginine: 0
- Metabolite data: asparagine: 0
- Metabolite data: aspartate: 0
- Metabolite data: biotin: 0
- Metabolite data: chlorpropamide: 0
- Metabolite data: coenzyme A: 0
- Metabolite data: dAMP: 1.7179
- Metabolite data: dATP: -0.3141
- Metabolite data: dCDP: -0.1509
- Metabolite data: dCMP: -1.099
- Metabolite data: dCTP: -2.549
- Metabolite data: dGDP/ADP: 0.1331
- Metabolite data: dGMP/AMP: 0.02924
- Metabolite data: dGTP/ATP: 0
- Metabolite data: dTDP: -1.607
- Metabolite data: dTMP: -2.786
- Metabolite data: dTTP: -3.44
- Metabolite data: folate: 0
- Metabolite data: glucono-lactone: 0
- Metabolite data: glutamate: 0
- Metabolite data: glutamine: 0
- Metabolite data: glutathione: 0
- Metabolite data: histidine: 0
- Metabolite data: hydroxyproline/Aminolevulinate: 0
- Metabolite data: isoleucine: 0
- Metabolite data: leucine: 0
- Metabolite data: maleic acid: 0
- Metabolite data: methionine: 0
- Metabolite data: nicotinamide mononucleotide: 0
- Metabolite data: orotidine-5'-phosphate: 0

Structure (SMILES): COc1cc2[nH]c(C)c(-c3ccc(Oc4ccc(OC(F)(F)F)cc4)cc3)c(=O)c2cc1Cl [ELQ-300]
- Metabolite data: 1_3-Bisphosphoglyceric acid: 0
- Metabolite data: 2_3-Diphosphoglyceric acid: -0.1098
- Metabolite data: 3-Phosphoglycerate: 0.01477
- Metabolite data: 4-Aminobutyrate: 0.29
- Metabolite data: 4-Phosphopantothenate: -0.3711
- Metabolite data: 4-phosphopantetheine: 0
- Metabolite data: 5-aminopentanoic acid: 0
- Metabolite data: 5-phosphoribosyl-1-pyrophosphate: 0
- Metabolite data: 6-Phospho-D-Gluconate: 0.1987
- Metabolite data: ADP-D-Glucose: -0.03292
- Metabolite data: Acetyl-CoA: -0.7931
- Metabolite data: Acetyllysine: -0.0938
- Metabolite data: Aconitate: 0.3201
- Metabolite data: CDP: -0.9142
- Metabolite data: CDP-Ethanolamine: -0.4266
- Metabolite data: CDP-choline: 0
- Metabolite data: CMP: -0.5539
- Metabolite data: CTP: -0.7898
- Metabolite data: Citrate/Isocitrate: 0.1898
- Metabolite data: Cyclic-AMP: 0.1104
- Metabolite data: Dihydroorotate: 5.061
- Metabolite data: FAD: 0.09303
- Metabolite data: FMN: -1.009
- Metabolite data: Fructose-1,6-Bisphosphate: 0.1196
- Metabolite data: Fumarate: 0.1542
- Metabolite data: GDP: -0.04006
- Metabolite data: GMP: 0.4588
- Metabolite data: GTP: 0.1697
- Metabolite data: Glucose-1/6-Phosphate: 0.2608
- Metabolite data: Glutathione Disulfide: -0.1199
- Metabolite data: Hexose: 0
- Metabolite data: Hydroxyisocaproic acid: 0
- Metabolite data: Indole: 0.2721
- Metabolite data: Ketoleucine: 0
- Metabolite data: L-arginino-succinate: 0
- Metabolite data: Lactate: -0.08432
- Metabolite data: Malate: 0.0586
- Metabolite data: Myo-Inositol: -0.4815
- Metabolite data: N-Acetyl-Glutamate: 0.1479
- Metabolite data: N-Acetyl-L-Alanine: -0.6073
- Metabolite data: N-Acetyl-L-Ornithine: -0.1715
- Metabolite data: N-Carbamoyl-L-Aspartate: 4.761
- Metabolite data: NAD+: 0.09044
- Metabolite data: NADH: 1.43
- Metabolite data: NADP+: -0.1602
- Metabolite data: NADPH: 3.029
- Metabolite data: Nicotinate: 0.05305
- Metabolite data: Octulose 8/1-Phosphate: -0.704
- Metabolite data: Orotate: 0.01858
- Metabolite data: PD: -0.006669
- Metabolite data: PE: -0.3407
- Metabolite data: PEEK: -0.3859
- Metabolite data: Phenol Red: 0
- Metabolite data: Pyroglutamic acid: 0.05668
- Metabolite data: S-Adenosyl-L-Homocysteine: -1.868
- Metabolite data: S-methyl-5'-thioadenosine: -0.1055
- Metabolite data: SD: -0.2791
- Metabolite data: Sedoheptulose Bisphosphate: 0.0682
- Metabolite data: UDP: -1.596
- Metabolite data: UDP-D-Glucose: -0.0232
- Metabolite data: UDP-D-Glucuronate: 0.002049
- Metabolite data: UDP-N-Acetyl-Glucosamine: -0.1795
- Metabolite data: UMP: -0.8903
- Metabolite data: UTP: -1.292
- Metabolite data: a-ketoglutarate: 0.1255
- Metabolite data: acetyl-aspartate: 0
- Metabolite data: arginine: 0
- Metabolite data: asparagine: 0
- Metabolite data: aspartate: 0
- Metabolite data: biotin: 0
- Metabolite data: chlorpropamide: 0
- Metabolite data: coenzyme A: 0
- Metabolite data: dAMP: -0.0907
- Metabolite data: dATP: 0.4618
- Metabolite data: dCDP: -0.107
- Metabolite data: dCMP: -0.1246
- Metabolite data: dCTP: -0.4381
- Metabolite data: dGDP/ADP: -0.01599
- Metabolite data: dGMP/AMP: -0.06466
- Metabolite data: dGTP/ATP: 0
- Metabolite data: dTDP: -1.258
- Metabolite data: dTMP: -1.023
- Metabolite data: dTTP: -1.011
- Metabolite data: folate: 0
- Metabolite data: glucono-lactone: 0
- Metabolite data: glutamate: 0
- Metabolite data: glutamine: 0
- Metabolite data: glutathione: 0
- Metabolite data: histidine: 0
- Metabolite data: hydroxyproline/Aminolevulinate: 0
- Metabolite data: isoleucine: 0
- Metabolite data: leucine: 0
- Metabolite data: maleic acid: 0
- Metabolite data: methionine: 0
- Metabolite data: nicotinamide mononucleotide: 0
- Metabolite data: orotidine-5'-phosphate: 0
